{
  "source": "patent US20060204502A1",
  "about": "(priority 2004, published 2006)",
  "key": {"[1]": {"test_system": "Human Pancreatic Cancer Panc-1", "assay": "MTT growth inhibitory assay, Panc-1", "type": "cell-based", "settings": "Panc-1 cells, A3 antagonist at 0.5 μg/ml", "procedure": "(§1) Interpretation of the EF is dependent upon the concentrations of A3 receptor antagonist tested. For example, when using very low concentrations of A3 receptor antagonist, any EF above 1.0 is synergistic if the A3 receptor antagonist concentration is below the threshold of cell growth inhibition.\n(§2) The cells are sub-cultured twice a week.\n(§3) Vinblastine sulfate salt was obtained from Sigma Chemical Co., (V1377). Irinotecan was diluted with culture medium. All other agents were dissolved in 100% DMSO at appropriate concentrations. The DMSO stock solutions were diluted 100-fold with growth medium so that the final DMSO concentration was 1%."}, "Human Melanoma A375": {"test_system": "Human Melanoma A375", "assay": "MTT growth inhibitory assay, A375", "settings": "A375 cells", "protocol": "An exemplary assay may comprise the following steps: Cells (1000-1500 cells/well) are seeded in a 96-well micro culture plate in a total volume of 100 μl/well. After overnight incubation in a humidified incubator at 37° C. with 5% CO2-95% air, chemotherapeutic drug solutions diluted with culture medium at various concentrations are added in the amount of 100 μl to each well. The plates are placed in a humidified incubator at 37° C. with 5% CO2-95% air for 7-10 days. The plates are then centrifuged briefly and 100 μl of the growth medium is removed. Cell cultures are incubated with 50 μl of MTT [3-(4,5-dimethylthiazol-2-yl)-2,5-diphenyl-tetrazolium bromide] reagent (1 mg/ml in Dulbecco's phosphate-buffered saline) for 4 hr at 37° C. The resultant purple formazan precipitate is solubilized with 200 μl of 0.04 N HCl in isopropanol. Absorbance is measured at a wavelength of 595 nm and at a reference wavelength of 655 nm using a Bio-Rad Model 3550 Microplate Reader. Preferably, all tests are run in duplicate for each dose level. […] The EZED50 computer program estimates the concentration of agent that inhibits cell growth by 50% as compared to the control cells. This is termed the IC50 and is determined by curve fitting test data using the following four logistic equation. [formula]\nIf testing concentrations are properly selected (i.e., no or little growth inhibition at low concentrations and complete inhibition at high concentrations), EZED50 program fits the data extremely well and estimates the IC50 value accurately. […] In these instances, the data could be re-analyzed by fixing the Amax value.\nIn this case, the IC50 could be estimated more accurately if both the Amax and Amin values are fixed. Although it may be feasible to estimate IC50 value by fixing Amax and/or Amax and Amin without repeating the experiment, the best way to determine the IC50 accurately is to decrease or increase the concentrations of the test agent and repeat the test.\nInhibitory assay testing is also used to determine enhanced therapeutic effects from combining A3 receptor antagonists with other tumor inhibiting agents. The inhibitory cell growth assays are run with and without selected concentrations of A3 receptor antagonists. An enhanced therapeutic effect is present when the IC50 of the tumor inhibiting agent is lower with the A3 receptor antagonist.\nQuantitatively, the enhancement factor (EF) is calculated by dividing the IC50 value of the tumor inhibiting agent for a tumor cell line by the IC50 value of the agent with A3 receptor antagonist for the same cell line: [formula]\nThe cells are cultured in a T25 Falcon Tissue Culture flask in a humidified incubator at 37° C. with 5% CO2-95% air. The cells are sub-cultured twice a week."}, "[2]": {"biological_target": "T1, rat A1 Adenosine receptor (Rattus norvegicus, UniProt P25099)", "T1 construct": "from tissue; host or cells: whole brain (minus brainstem, striatum and cerebellum) of male Wistar rats", "T1 sequence (P25099 1-326)": "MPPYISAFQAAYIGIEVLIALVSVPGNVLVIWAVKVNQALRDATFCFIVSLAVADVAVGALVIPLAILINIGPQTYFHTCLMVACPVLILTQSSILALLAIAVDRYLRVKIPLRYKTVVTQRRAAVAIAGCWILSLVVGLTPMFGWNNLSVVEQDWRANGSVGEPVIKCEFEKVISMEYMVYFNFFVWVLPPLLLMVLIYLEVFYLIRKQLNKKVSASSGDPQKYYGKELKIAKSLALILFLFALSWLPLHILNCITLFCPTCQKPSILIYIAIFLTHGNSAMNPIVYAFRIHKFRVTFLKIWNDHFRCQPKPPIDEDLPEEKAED", "assay": "Rat A1 adenosine receptor binding, [3H]-DPCPX, rat brain membranes", "settings": "read-out: rA1 (Ki)", "protocol": "Membrane preparations: Male Wistar rats (200-250 g) can be decapitated and the whole brain (minug brainstem, striatum and cerebellum) dissected on ice. The brain tissues can be disrupted in a Polytron (setting 5) in 20 vols of 50 mM Tris HCl, pH 7.4. […] After 30 min incubation at 37° C., the membranes can be centrifuged and the pellets stored at −70° C. Striatal tissues can be homogenized with a Polytron in 25 vol of 50 mM Tris HCl buffer containing 10 mM MgCl2 pH 7.4. […] After 30 min incubation at 37° C., membranes can be centrifuged and the pellet stored at −70° C. […] Incubation times are typically 120 min at 25° C.\nRadioligand binding assays may comprise the following: Binding of [^3H]-SCH 58261 (5-amino-7-(2-phenylethyl)-2-(2-furyl)-pyrazolo[4,3-e]-1,2,4-triazolo[1,5-c]pyrimidine) to rat striatal membranes (100 ug of protein/assay) can be performed according to methods described in Zocchi et al., 1996, J. Pharm. and Exper. […] In competition studies, at least 6-8 different concentrations of examined compounds should be used. […] Incubation time is typically 60 min at 25° C. Bound and free radioactivity can be separated by filtering the assay mixture through Whatman GF/B glass-fiber filters using a Brandel cell harvester (Gaithersburg, Md., USA). […] The filter bound radioactivity can be measured, for example, by liquid scintillation spectrometry. […]"}, "[3]": {"test_system": "Human Colon Carcinoma HT29", "assay": "MTT growth inhibitory assay, HT29", "type": "cell-based", "settings": "HT29 cells", "procedure": "as §1, §2, §3"}, "[4]": {"test_system": "Human Lung Carcinoma SKMES", "assay": "MTT growth inhibitory assay, SKMES", "type": "cell-based", "settings": "SKMES cells, A3 antagonist at 0.5 μg/ml", "procedure": "as §1, §2, §3"}, "[5]": {"biological_target": "T2, rat A2A Adenosine receptor (Rattus norvegicus, UniProt P30543)", "T2 construct": "from tissue; host or cells: rat striatum (male Wistar rats)", "T2 sequence (P30543 whole entry)": "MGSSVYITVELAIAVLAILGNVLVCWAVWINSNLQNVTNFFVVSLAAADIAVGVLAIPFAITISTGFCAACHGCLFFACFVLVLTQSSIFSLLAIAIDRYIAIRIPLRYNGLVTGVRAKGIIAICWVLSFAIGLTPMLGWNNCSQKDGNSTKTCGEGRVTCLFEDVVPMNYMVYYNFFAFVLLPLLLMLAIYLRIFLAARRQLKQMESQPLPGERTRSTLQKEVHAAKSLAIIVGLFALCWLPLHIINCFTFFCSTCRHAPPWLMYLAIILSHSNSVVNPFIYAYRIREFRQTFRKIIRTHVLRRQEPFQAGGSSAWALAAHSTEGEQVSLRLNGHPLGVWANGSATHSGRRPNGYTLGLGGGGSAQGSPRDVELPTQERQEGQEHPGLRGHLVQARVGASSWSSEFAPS", "assay": "Rat A2A adenosine receptor binding, [3H]-SCH 58261, rat striatal membranes", "settings": "read-out: rA2A (Ki)"}, "[6]": {"settings": "enhancement of paclitaxel IC50, A3 antagonist at 0.5 μg/ml"}},
  "data": [
    {"molecule": "CN(C)c1ccc(NC(=O)Nc2nc3nn(C)cc3c3nc(-c4ccco4)nn23)cc1", "note": "[IL-11, N-1-(4-dimethylamino-phenyl)-N′-5-[8-methyl-2-(2-furyl)-pyrazolo[4,3-e]1,2,4-triazolo[1,5-c]pyrimidine]-urea]", "values": [
      {"measurement": "Enhancement Factor", "setting": "[1]; enhancement of docetaxel IC50", "value": 1.4},
      {"measurement": "Enhancement Factor", "setting": "[1]; enhancement of paclitaxel IC50", "value": 1.8},
      {"measurement": "Enhancement Factor", "setting": "Human Melanoma A375; enhancement of docetaxel IC50, A3 antagonist at 0.5 μg/ml", "value": 5.3},
      {"measurement": "Enhancement Factor", "setting": "Human Melanoma A375; enhancement of docetaxel IC50, A3 antagonist at 5 μg/ml", "value": 6.5},
      {"measurement": "Enhancement Factor", "setting": "Human Melanoma A375; [6]", "value": 3.1},
      {"measurement": "Enhancement Factor", "setting": "Human Melanoma A375; enhancement of paclitaxel IC50, A3 antagonist at 5 μg/ml", "value": 9.6},
      {"measurement": "Ki", "setting": "[2]", "value": "> 10", "unit": "µM"},
      {"measurement": "Enhancement Factor", "setting": "[3]; enhancement of docetaxel IC50, A3 antagonist at 0.05 μg/ml", "value": 6.4},
      {"measurement": "Enhancement Factor", "setting": "[3]; enhancement of doxorubicin IC50, A3 antagonist at 0.5 μg/ml", "value": 1.2},
      {"measurement": "Enhancement Factor", "setting": "[3]; enhancement of irinotecan IC50, A3 antagonist at 0.5 μg/ml", "value": 1.1},
      {"measurement": "Enhancement Factor", "setting": "[3]; [6]", "value": 2.5},
      {"measurement": "Enhancement Factor", "setting": "[4]; enhancement of docetaxel IC50", "value": 1.9},
      {"measurement": "Enhancement Factor", "setting": "[4]; enhancement of irinotecan HCL IC50", "value": 1.9},
      {"measurement": "Enhancement Factor", "setting": "[4]; enhancement of paclitaxel IC50", "value": 4.2},
      {"measurement": "Enhancement Factor", "setting": "[4]; enhancement of vinblastine IC50", "value": 1.6},
      {"measurement": "Ki", "setting": "[5]", "value": "> 10", "unit": "µM"}
    ]}
  ]
}
